Data taken from patent US8492394B2, “(3-aryl-piperazin-1-yl), (2-aryl-morpholin-4-yl) and (2-aryl-thiomorpholin-4-yl) derivatives of 6,7-dialkoxy-quinazoline, 6,7-dialkoxyphtalazine and 6,7-dialkoxyisoquinoline as PDE10A enzyme inhibitors” (H. Lundbeck A/S, priority 2006, dated 2013).

Legend:
[1] = target: PDE10A enzyme (Homo sapiens (Human), UniProt Q9Y233); experiment: PDE10A inhibition assay; format: biochemical; details: tritium labeled cAMP 5 nM, SPA; read-out: PDE10 IC50
Procedure: Active PDE10A enzyme is prepared in a number of ways for use in PDE assays (Loughney, K. et al. Gene 1999, 234, 109-117; Fujishige, K. et al. Eur J. Biochem. 1999, 266, 1118-1127 and Soderling, S. et al. Proc. Natl. Acad. Sci. 1999, 96, 7071-7076). PDE10A can be expressed as full-length proteins or as truncated proteins, as long as they express the catalytic domain. PDE10A can be prepared in different cell types, for example insect cells or E. coli. An example of a method to obtain catalytically active PDE10A is as follows: The catalytic domain of human PDE10A (amino acids 440-779 from the sequence with accession number NP 006652) is amplified from total human brain total RNA by standard RT-PCR and is cloned into the BamH1 and Xho 1 sites of the pET28a vector (Novagen). Expression in coli is performed according to standard protocols. Briefly, the expression plasmids are transformed into the BL21 (DE3) E. coli strain, and 50 mL cultures inoculated with the cells allowed to grow to an OD600 of 0.4-0.6 before protein expression is induced with 0.5 mM IPTG. Following induction, the cells are incubated overnight at room temperature, after which the cells are collected by centrifugation. Cells expressing PDE10A are resuspended in 12 mL (50 mM TRIS-HCl-pH8.0, 1 mM MgCl2 and protease inhibitors). The cells are lysed by sonication, and after all cells are lysed, TritonX100 is added according to Novagen protocols.
PDE10A assays have been described previously (Loughney, K. et al. Gene 1999, 234, 109-117; Fujishige, K. et al. Eur J Biochem. 1999, 266, 1118-1127 and Soderling, S. et al. Proc. Natl. Acad. Sci. 1999, 96, 7071-7076). PDE10A assays could for example can be performed as follows: PDE10A assays are performed in 60 uL samples containing a fixed amount of the relevant PDE enzyme (sufficient to convert 20-25% of the cyclic nucleotide substrate), a buffer (50 mM HEPES7.6; 10 mM MgCl2; 0.02% Tween20), 0.1 mg/ml BSA, 225 pCi of ^3H-labelled cyclic nucleotide substrate, tritium labeled cAMP to a final concentration of 5 nM and varying amounts of inhibitors. Reactions are initiated by addition of the cyclic nucleotide substrate, and reactions are allowed to proceed for one hr at room temperature before being terminated through mixing with 15 uL 8 mg/mL yttrium silicate SPA beads (Amersham). The beads are allowed to settle for one hr in the dark before the plates are counted in a Wallac 1450 Microbeta counter. The measured signal can be converted to activity relative to an uninhibited control (100%) and IC50 values can be calculated using the Xlfit extension to EXCEL.

[2] = test system: rats; details: cited from earlier work
[3] = test system: rats; details: cited from earlier work; remark: listed apart in the source
[4] = test system: rats; details: cited from earlier work; remark: listed apart in the source

Chain of PDE10A enzyme (Q9Y233 716-1055): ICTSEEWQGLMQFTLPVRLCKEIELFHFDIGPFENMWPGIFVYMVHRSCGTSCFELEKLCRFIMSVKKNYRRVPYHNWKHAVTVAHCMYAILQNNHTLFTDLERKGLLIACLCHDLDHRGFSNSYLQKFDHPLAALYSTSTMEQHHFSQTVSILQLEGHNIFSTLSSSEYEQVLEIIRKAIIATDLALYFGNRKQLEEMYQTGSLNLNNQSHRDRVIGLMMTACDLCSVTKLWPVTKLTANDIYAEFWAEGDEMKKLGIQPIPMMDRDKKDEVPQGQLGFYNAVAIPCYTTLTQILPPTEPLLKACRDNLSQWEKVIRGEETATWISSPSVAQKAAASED

IC50 [1] [nM] | Structure (SMILES) | also measured
89 | COc1cc2ncnc(N3CCSC(c4ccccc4)C3)c2cc1OC (centres unmarked) [Compound 1, 6,7-Dimethoxy-4-(2-phenyl-thiomorpholin-4-yl)-quinazoline] | 
33 | COc1cccc(C2CN(c3ncnc4cc(OC)c(OC)cc34)CCN2)c1 (centres unmarked) [Compound 2, 6,7-Dimethoxy-4-(3-(3-methoxyphenyl)-piperazin-1-yl)-quinazoline] | 
79 | COc1cc2ncnc(N3CCOC(c4ccc(C)cc4)C3)c2cc1OC (centres unmarked) [Compound 3, 6,7-Dimethoxy-4-(2-(4-methylphenyl)-morpholin-4-yl)-quinazoline] | 
600 | COc1cccc([C@@H]2CN(c3ncnc4cc(OC)c(OC)cc34)CCN2)c1 [Compound 4, 6,7-Dimethoxy-4-((R)-3-(3-methoxyphenyl)-piperazin-1-yl)-quinazoline] | 
14 | COc1cccc([C@H]2CN(c3ncnc4cc(OC)c(OC)cc34)CCN2)c1 [Compound 5, 6,7-Dimethoxy-4-((S)-3-(3-methoxyphenyl)-piperazin-1-yl)-quinazoline] | 
65 | COc1cc2ncnc(N3CCN[C@H](c4ccccc4)C3)c2cc1OC [Compound 6, 6,7-Dimethoxy-4-((R)-3-phenyl-piperazin-1-yl)-quinazoline] | 
90 | COc1cc2ncnc(N3CCN[C@@H](c4ccccc4)C3)c2cc1OC [Compound 7, 6,7-Dimethoxy-4-((S)-3-phenyl-piperazin-1-yl)-quinazoline] | 
180 | COc1cc2ncnc(N3CCNC(c4cc(OC)c(OC)c(OC)c4)C3)c2cc1OC (centres unmarked) [Compound 8, 4-[3-(3,4,5-trimethoxyphenyl)-piperazin-1-yl]-6,7-dimethoxy-quinazoline] | 
110 | COc1cc2ncnc(N3CCNC(c4ccccc4OC)C3)c2cc1OC (centres unmarked) [Compound 9, 4-[3-(2-methoxyphenyl)-piperazin-1-yl]-6,7-dimethoxy-quinazoline] | 
200 | COc1cc2ncnc(N3CCOC(c4ccc(F)cc4)C3)c2cc1OC (centres unmarked) [Compound 10, 6,7-Dimethoxy-4-(2-(4-fluorophenyl)-morpholin-4-yl)-quinazoline] | 
260 | COc1cc2ncnc(N3CCOC(c4ccc(Cl)cc4)C3)c2cc1OC (centres unmarked) [Compound 11, 6,7-Dimethoxy-4-(2-(4-chlorophenyl)-morpholin-4-yl)-quinazoline] | 
660 | COc1cc2ncnc(N3CCOC(c4ccc(C(F)(F)F)cc4)C3)c2cc1OC (centres unmarked) [Compound 12, 6,7-Dimethoxy-4-(2-(4-trifluomethylphenyl)-morpholin-4-yl)-quinazoline] | 
190 | COc1cc2ncnc(N3CCOC(c4ccccc4Cl)C3)c2cc1OC (centres unmarked) [Compound 13, 6,7-Dimethoxy-4-(2-(2-chlorophenyl)-morpholin-4-yl)-quinazoline] | 
62 | COc1cc2ncnc(N3CCNC(c4ccc(N(C)C)cc4)C3)c2cc1OC (centres unmarked) [Compound 14, 4-[3-(4-dimethylaminophenyl)-piperazin-1-yl]-6,7-dimethoxy-quinazoline] | 
35 | COc1cc2ncnc(N3CCNC(c4ccc5c(c4)OCO5)C3)c2cc1OC (centres unmarked) [Compound 15, 4-[3-(3,4-methylenedioxyphenyl)-piperazin-1-yl]-6,7-dimethoxy-quinazoline] | 
170 | COc1cc2ncnc(N3CCNC(c4cc(Cl)ccc4Cl)C3)c2cc1OC (centres unmarked) [Compound 16, 4-[3-(2,5-dichlorophenyl)-piperazin-1-yl]-6,7-dimethoxy-quinazoline] | 
 | COc1ccc(Cc2nccc3cc(OC)c(OC)cc23)cc1OC [Papaverin] | hyperactivity induced by PCP [2]: reduced hyperactivity; catalepsy on its own ([3]; alone): did not cause catalepsy on its own; cataleptic effect of haloperidol ([3]; with the D2 receptor antagonist haloperidol): potentiated the cataleptic effect; reduction of amphetamine induced hyperactivity [4]: insignificant
